For data set [1], the system named is rodent OTR. Conditions: prairie vole brain sections.
For data set [2] the following is noted: cited from earlier work.
The target in data set [3] is T1, human OTR (Homo sapiens, UniProt P30559).
T1 sequence (P30559 1-389): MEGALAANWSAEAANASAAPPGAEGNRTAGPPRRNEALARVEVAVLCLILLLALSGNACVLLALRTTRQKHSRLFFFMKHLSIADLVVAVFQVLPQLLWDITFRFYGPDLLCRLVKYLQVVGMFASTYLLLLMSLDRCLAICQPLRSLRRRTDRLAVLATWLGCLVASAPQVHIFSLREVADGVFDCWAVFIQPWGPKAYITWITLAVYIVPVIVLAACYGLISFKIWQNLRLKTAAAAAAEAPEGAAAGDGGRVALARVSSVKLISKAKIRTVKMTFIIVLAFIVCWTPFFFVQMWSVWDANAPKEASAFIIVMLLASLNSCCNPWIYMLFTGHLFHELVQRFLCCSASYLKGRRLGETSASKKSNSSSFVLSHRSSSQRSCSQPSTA
The data set is classed as binding. Conditions: human receptors.

Data set [4] addresses human V1aR (Homo sapiens, UniProt P37288). Type of data set: binding. Conditions: competition with [3H]-AVP, NIMH PDSP.
Data set [5] has as its target T2, human vasopressin receptor V1b (Homo sapiens, UniProt P47901).
T2 sequence (P47901 1-424): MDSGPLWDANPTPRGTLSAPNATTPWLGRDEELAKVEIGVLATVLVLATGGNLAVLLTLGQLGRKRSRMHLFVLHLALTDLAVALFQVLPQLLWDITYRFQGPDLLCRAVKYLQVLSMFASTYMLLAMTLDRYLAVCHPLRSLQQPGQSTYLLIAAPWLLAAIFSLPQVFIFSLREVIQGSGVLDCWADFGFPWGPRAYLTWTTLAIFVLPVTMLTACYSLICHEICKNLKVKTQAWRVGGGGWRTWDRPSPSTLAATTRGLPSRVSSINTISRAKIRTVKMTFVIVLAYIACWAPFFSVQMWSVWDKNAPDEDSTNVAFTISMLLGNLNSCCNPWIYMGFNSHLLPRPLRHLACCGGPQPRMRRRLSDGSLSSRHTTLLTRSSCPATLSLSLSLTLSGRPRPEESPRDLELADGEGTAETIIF
Type of data set: binding. Conditions: competition with [3H]-AVP, NIMH PDSP.

Data set [6] addresses human vasopressin receptor V2 (Homo sapiens, UniProt P30518). The data set is classed as binding. Conditions: competition with [3H]-AVP, NIMH PDSP.

Sequence of human V1aR (P37288 whole entry): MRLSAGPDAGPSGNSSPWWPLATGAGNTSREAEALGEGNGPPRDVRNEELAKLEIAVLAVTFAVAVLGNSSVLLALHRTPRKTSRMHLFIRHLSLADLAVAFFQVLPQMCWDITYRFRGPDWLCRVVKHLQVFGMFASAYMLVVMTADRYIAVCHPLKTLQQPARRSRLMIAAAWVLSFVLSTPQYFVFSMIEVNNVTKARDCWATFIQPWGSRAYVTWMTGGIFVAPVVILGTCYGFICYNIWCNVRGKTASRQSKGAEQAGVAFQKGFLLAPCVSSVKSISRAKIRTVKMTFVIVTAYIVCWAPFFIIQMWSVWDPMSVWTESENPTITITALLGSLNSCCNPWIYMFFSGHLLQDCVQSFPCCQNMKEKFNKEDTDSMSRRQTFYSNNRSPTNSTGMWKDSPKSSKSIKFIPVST
Sequence of human vasopressin receptor V2 (P30518 whole entry): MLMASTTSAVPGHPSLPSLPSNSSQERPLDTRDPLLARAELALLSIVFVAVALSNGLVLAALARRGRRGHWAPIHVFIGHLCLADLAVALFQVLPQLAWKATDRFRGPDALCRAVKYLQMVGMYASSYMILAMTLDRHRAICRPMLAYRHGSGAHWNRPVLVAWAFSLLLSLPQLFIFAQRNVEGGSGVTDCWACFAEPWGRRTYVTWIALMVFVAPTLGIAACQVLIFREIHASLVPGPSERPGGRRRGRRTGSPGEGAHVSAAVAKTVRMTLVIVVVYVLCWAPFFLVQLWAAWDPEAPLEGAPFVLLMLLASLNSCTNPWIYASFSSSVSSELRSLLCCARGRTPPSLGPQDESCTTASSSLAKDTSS

Regarding `COc1cc(OC2CCN(S(C)(=O)=O)CC2)ccc1CC(=O)N1CCC(N2C(=O)CCc3ccccc32)CC1` [Compound 4, 1-(1-(2-(2-Methoxy-4-((1-(methylsulfonyl)piperidin-4-yl)oxy)phenyl)acetyl)piperidin-4-yl)-3,4-dihydroquinolin-2(1H)-one], in data set [1], the “selectivity for the rodent OTR over V1aR” value was “four times more selective”.

Take `COc1cc(OC2CCN(C(C)=O)CC2)ccc1C(=O)N1CCC(N2C(=O)OCc3ccccc32)CC1` [Compound L-371257]: the brain penetration entry in data set [2] is reported as “very poor brain penetrant”.

Take `CS(=O)(=O)N1CCC(Oc2ccc(CC(=O)N3CCC(N4C(=O)CCc5ccccc54)CC3)c(OC/C=C/I)c2)CC1` [Compound 1, (E)-1-(1-(2-(2-(3-Iodoallyloxy)-4-(1-(methylsulfonyl)piperidin-4-yloxy)phenyl)acetyl)piperidin-4-yl)-3,4-dihydroquinolin-2(1H)-one]: in data set [3], the “potency for the human OTR over V1aR” value was 79 fold.

For `CS(=O)(=O)N1CCC(Oc2ccc(CC(=O)N3CCC(N4C(=O)CCc5ccccc54)CC3)c(O)c2)CC1` [Compound 13, 1-(1-(2-(2-Hydroxy-4-(1-(methylsulfonyl)piperidin-4-yloxy)phenyl)acetyl)piperidin-4-yl)-3,4-dihydroquinolin-2(1H)-one], in data set [4], the “Ki Human V1aR” value is “no detectable affinity”. The “Ki Human V1b” value in data set [5] is on record as “no detectable affinity”. For the same compound, the “Ki Human V2” value in data set [6] is reported as “no detectable affinity”.

(Values after publication PMC3701955 (Bioorganic & medicinal chemistry, 2012).)
